Measured values: patent US20120021044A1, “Novel Cationic Lipid, A Preparation Method of the Same and A Delivery System Comprising the Same” (SNU R&DB FOUNDATION, priority 2007, published 2012)

Tested on: Bcl2 transcript in SiHa cells
Assay: Bcl2 transcript expression by RT-PCR after delivery of Bcl2 antisense oligonucleotide into SiHa cells
Format: cell-based, human
Settings: Bcl2 antisense oligonucleotide 100 nM, 24 hours, FIG. 8
Method: On the day prior to the experiment, SiHa cells were seeded on 24-well plates at a density of 8×10^4 cells/well. […] The antisense oligonucleotide to induce the inhibition of expression of the Bcl2 gene (Genbank accession number: […] These materials were slowly pipetted, mixed and allowed to stand at room temperature for 20 min, thus resulting in formation of complexes. The thus-prepared complexes were added to the well plates, followed by cell culture in a CO2 incubator at 37° C. for 24 hours. After 24 hours, total RNA was isolated from the cultured cells using a Trizol reagent (Invitrogen, Carlsbad, Calif., USA) and then reverse-transcribed into cDNA using AccuPower RT PreMix (Bioneer, Daejeon, Korea). […] An expression level of the Bcl2 transcript was assayed by determining quantitative changes of the gene expression through normalization of a band density of the Bcl2-specific PCR product against a band density occurring by amplification of the GAPDH (glyceraldehyde-3-phosphate dehydrogenase) gene.

antisense oligonucleotide-alone: Bcl2 antisense oligonucleotide 5'-TCT CCC AGC GTG CGC CAT-3' (Bioneer), given without delivery system (antisense TCTCCCAGCGTGCGCCAT; chemistry not given here)
amount of the Bcl2 transcript (RT-PCR, normalized against GAPDH): no changes in an amount of the Bcl2 transcript
